# Results taken from patent US20230098254A1, “SCUTELLARIAE RADIX COMPOUNDS AND USE THEREOF FOR INHIBITING OXIDATIVE PHOSPHORYLATION PATHWAY OF MITOCHONDRIA” (priority 2020, published 2023).
# Assays:
# Assay type in all cases: cell-based
# G-361 = test: Cell viability CellTiter-Glo, G-361; settings: Homo sapiens; G-361, melanoma
# Description: (§1) Cell viability was measured by using the Promega CellTiter-Glo kit, the kit reflected cell viability by directly measuring intracellular ATP content. Different cancer cells were cultured in culture medium, and the 50% inhibitory concentration IC50 of the compound SJ2858 was measured by Promega CellTiter-Glo kit. The name source and culture condition of each tumor cell line were as follows:
# Cell line G-361 (ATCC, No. CRL-1424) was cultured in McCoy's 5a medium containing 10% fetal bovine serum (+P/S).
# NCI-H 1793 = test: Cell viability CellTiter-Glo, NCI-H 1793; settings: Homo sapiens, NCI-H1793; NCI-H 1793, lung cancer
# Description: as §1
# Cell line NCI-H1793 (ATCC, No. CRL-5896) was cultured in HITES medium containing 5% fetal bovine serum (+P/S);
# C3A = test: Cell viability CellTiter-Glo, C3A; settings: Homo sapiens, liver cancer
# Description: as §1
# Cell line C3A (ATCC, No. CRL-10741) was cultured in EMEM medium containing 10% fetal bovine serum (+P/S);
# HCC1806 = test: Cell viability CellTiter-Glo, HCC1806; settings: Homo sapiens; HCC1806, breast cancer
# Description: as §1
# Cell line HCC1806 (ATCC, No. CRL-2335) was cultured in RPMI1640 medium containing 10% fetal bovine serum (+P/S);
# DU 145 = test: Cell viability CellTiter-Glo, DU 145; settings: Homo sapiens; DU 145, prostate cancer
# Description: as §1
# Cell line DU 145 (ATCC, No. HTB-81) was cultured in EMEM medium containing 10% fetal bovine serum (+P/S);
# CHL-1 = test: Cell viability CellTiter-Glo, CHL-1; settings: Homo sapiens; CHL-1, melanoma
# Description: as §1
# Cell line CHL-1 (ATCC, No. CRL-9446) was cultured in DMEM medium containing 10% fetal bovine serum (+P/S);
# SU-DHL-2 = test: Cell viability CellTiter-Glo, SU-DHL-2; settings: Homo sapiens; SU-DHL-2, lymphoma
# Description: as §1
# Cell line SU-DHL-2 (ATCC, No. CRL-2956) was cultured in RPMI1640 medium containing 10% fetal bovine serum (+P/S);
# [1] = test system: oxidative phosphorylation pathway of mitochondria; test: Cellular oxygen consumption (OCR), XFe metabolic analysis system; settings: NCI-H82 cell; 73.2 μM; within half an hour; FIG. 1
# Description: The oxygen required by cell was mainly consumed in the mitochondria respiratory chain, so the measurement of cellular oxygen consumption (OCR, oxygen consumption rate) could directly reflect the activity of the oxidative phosphorylation pathway of mitochondria. In this experiment, the XFe metabolic analysis system was used to measure the oxygen consumption of NCI-H82 cell in the presence or absence of Compound SJ2858 (baicalein) and Compound SJ2775 (baicalin).
# Rotenone (abbreviated as RO, 0.5 μM) is a known inhibitor of mitochondria oxidative phosphorylation pathway complex I, Antimycin A (abbreviated as AA, 0.5 μM) is a known inhibitor of mitochondria oxidative phosphorylation pathway complex III. Compound SJ2858, 73.2 μM; Compound SJ2775, 118.2 μM.
# Jurkat, Clone E6-1 = test: Cell viability CellTiter-Glo, Jurkat, Clone E6-1; settings: Homo sapiens, Clone E6-1, leukemia
# Description: as §1
# Cell line Jurkat, Clone E6-1 (ATCC, No. TIB-152) was cultured in RPMI1640 medium containing 10% fetal bovine serum (+P/S);
# ACHN = test: Cell viability CellTiter-Glo, ACHN; settings: Homo sapiens, kidney cancer
# Description: as §1
# Cell line ACHN (ATCC, No. CRL-1611) was cultured in EMEM medium containing 10% fetal bovine serum (+P/S);
# G-401 = test: Cell viability CellTiter-Glo, G-401; settings: Homo sapiens; G-401, kidney cancer
# Description: as §1
# Cell line G-401 (ATCC, No. CRL-1441) was cultured in McCoy's 5a medium containing 10% fetal bovine serum (+P/S);
# SNU-449 = test: Cell viability CellTiter-Glo, SNU-449; settings: Homo sapiens; SNU-449, liver cancer
# Description: as §1
# Cell line SNU-449 (ATCC, No. CRL-2234) was cultured in RPMI1640 medium containing 10% fetal bovine serum (+P/S);
# LS 180 = test: Cell viability CellTiter-Glo, LS 180; settings: Homo sapiens, LS180; LS 180, intestinal cancer
# Description: as §1, with “follows: […]” for “follows:”
# 22RV1 = test: Cell viability CellTiter-Glo, 22RV1; settings: Homo sapiens; 22RV1, prostate cancer
# Description: as §1
# Cell line 22RV1 (ATCC, No. CRL-2505) was cultured in RPMI1640 medium containing 10% fetal bovine serum (+P/S);
# BT-549 = test: Cell viability CellTiter-Glo, BT-549; settings: Homo sapiens; BT-549, breast cancer
# Description: as §1
# Cell line BT-549 (ATCC, No. HTB-122) was cultured in RPMI1640 medium containing 10% fetal bovine serum and 0.023 IU/ml human insulin (+P/S);
# A-375 = test: Cell viability CellTiter-Glo, A-375; settings: Homo sapiens; A-375, melanoma
# Description: as §1
# Cell line A-375 (ATCC, No. CRL-1619) was cultured in DMEM medium containing 10% fetal bovine serum (+P/S);
# GB-1 = test: Cell viability CellTiter-Glo, GB-1; settings: Homo sapiens; GB-1, brain cancer
# Description: as §1
# Cell line GB-1 (JCRB, No. IFO50489) was cultured in DMEM medium containing 10% fetal bovine serum (+P/S);
# MIA PaCa-2 = test: Cell viability CellTiter-Glo, MIA PaCa-2; settings: Homo sapiens; MIA PaCa-2, pancreatic cancer
# Description: as §1
# Cell line MIA PaCa-2 (ATCC, No. CRL-1420) was cultured in DMEM medium containing 10% fetal bovine serum (+P/S);
# MDA-MB-453 = test: Cell viability CellTiter-Glo, MDA-MB-453; settings: Homo sapiens; MDA-MB-453, breast cancer
# Description: as §1
# Cell line MDA-MB-453 (ATCC, No. HTB-131) was cultured in Leibovitz's L-15 medium containing 10% fetal bovine serum (+P/S);
structure (smiles),measurement,setting,value
"O=c1cc(-c2ccccc2)oc2cc(O)c(O)c(O)c12 [Compound SJ2858, baicalein]",IC50,G-361,33.6 µM
same,IC50,NCI-H 1793,35.2 µM
same,IC50,C3A,27 µM
same,IC50,HCC1806,25.7 µM
same,IC50,DU 145,37.8 µM
same,IC50,CHL-1,9.5 µM
same,IC50,SU-DHL-2,6.2 µM
same,Inhibition of oxygen consumption (in words),[1],significantly inhibit
same,IC50,"Jurkat, Clone E6-1",14.2 µM
same,IC50,ACHN,17.7 µM
same,IC50,G-401,12.3 µM
same,IC50,SNU-449,26.9 µM
same,IC50,LS 180,17.4 µM
same,IC50,22RV1,25.9 µM
same,IC50,BT-549,18.1 µM
same,IC50,A-375,10.6 µM
same,IC50,GB-1,12.4 µM
same,IC50,MIA PaCa-2,19.7 µM
same,IC50,MDA-MB-453,75.3 µM
